Key:
Assay type in all cases: cell-based, human
[1] = test system: control and ERCC6L2^−/− cells; assay: Nascent DNA degradation assay (DNA combing); conditions: 3 mM hydroxyurea, 4 h; IdU/CldU track ratio; N(tracks)>700
Description: Control and ERCC6L2^−/− cells were labeled with 100 μM CldU, followed by 100 μM IdU in the presence of 10 μM Polα inhibitor CD437. Each pulse lasted 40 min. Cells were then trypsinised and embedded in agarose plugs using a kit from Genomic Vision according to the manufacturer’s instructions. DNA was extracted and purified from the agarose plugs, and stretched onto silanised coverslips with the molecular combing system (Genomic Vision). CldU was detected with rat anti-BrdU antibody (Abcam, BU1/75) and Alexa Fluor 594 conjugated secondary antibody (Thermo Fisher Scientific). ldU was detected with mouse anti-BrdU antibody (Becton Dickinson, BD44) and Alexa Fluor 488 conjugated secondary antibody (Thermo Fisher Scientific). […] More than 1500 tracks were analyzed per condition.
For nascent DNA degradation assay, cells were sequentially incubated with 100 μM CldU and 100 μM IdU. […] More than 700 tracks were analyzed per condition. […]
Error bars represent standard errors from 3 independent experiments. […] U2OS cells were transfected with YFP-ERCC6L2 constructs and monitored by live cell imaging following laser induced DNA damage. […]
(F) Valida?on of siRNA against CTC1 and C20orf196. […] For BRCA1, RIF1, REV7, 53BP1, BLM and CtIP, cells were transfected as in F, and endogenous proteins were detected by speciﬁc an?bodies. […] Expression was detected by an?-FLAG or an?-GFP an?bodies, as indicated. […]

pRPA32 = assay: pRPA levels (ssDNA marker); conditions: 50 µg/ml phleomycin for 12 h; vs control cells
Description: For quantitative analysis of pRPA, RAD51, γH2AX, and EdU foci, non-overlapping images were acquired using a 20x objective lens. Image analysis was performed using CellProfiler.[98] For quantification of TRF1-and CENP-C-positive micronuclei, random non-overlapping images were acquired, and Z-stacks were further collected for each micronucleus to examine the presence of TRF1 and CENP-C foci. […]
(§1) 0.8 ControlERCC6L2ControlERCC6L2
(§2) 0.4 28 kDa short exposure […]
(§3) Figure S12. DNA damage-induced changes in control and ERCC6L2 -/- cells. Related to Figure 6.
(§4) (A) Box and whisker plots measuring average pRPA intensi?es in control and ERCC6L2-/- cells. Cells were either untreated, or exposed to 50 µg /ml phleomycin for 12 h, before ﬁxa?on and staining. N(images)>180, N(cells)>28,000. (B) Representa?ve images of phleomycin treated cells used for quan?ﬁca?ons in A. Shown are expressions of indicated proteins, with zoomed images of cells in coloured frames.
(§5) (C) Analysis of pRPA levels by western blot. Treatments were as in A. (D) Box and whisker plots measuring average pKAP1 intensi?es in control and ERCC6L2-/- cells. Cells were either untreated, or exposed to 50 µg /ml phleomycin for 12 h, before ﬁxa?on and staining.
N(images)>180, N(cells)>28,000. […]

[2] = test system: control and ERCC6L2^−/− U2OS cells; assay: Micronuclei formation; conditions: cells grown with damaging agents for 2 days; ERCC6L2^−/− vs control U2OS
Description: absence or presence of damaging agents for 2 days. CENPC and 53BP1 were used as centromeric and DSB markers, respec?vely. N(images) >140, N(cells)>50,000. (B) Quan?ﬁca?on of micronuclei subtypes in control and ERCC6L2-/- U2OS cells, as indicated. 53BP1 or γH2AX were used as DSB markers; CENP-C was used as a centromere marker; Telomeric repeat-binding factor 2-interac?ng protein 1 (RAP1) was used as a telomere marker. N(images)>400, N(cells)>30,000.

CENP-B = CENP-B intensities by QIBC after genotoxic stress; conditions: 1 h, 5 h recovery, N(cells)>30,000
pKAP1 (KAP1 S824) = assay: pKAP1 levels; conditions: 50 µg/ml phleomycin for 12 h; vs control cells
Description: as §1, §2, §3, §4, §5
N(images)>180, N(cells)>28,000. (E) Representa?ve images of phleomycin treated cells used for quan?ﬁca?ons in D. Shown are expressions of indicated proteins, with zoomed images of cells in coloured frames. (F) Analysis of pKAP1 levels by western blot. Treatments were as in D. (G) Box and whisker plots measuring KAP1 foci in control and ERCC6L2-/- cells. Cells were either untreated, or exposed to 50 µg /ml phleomycin for 12 h, before ﬁxa?on and staining. N(images)>180, N(cells)>28,000. B, E, H: Scale bar: 10 µm. A, D, G: Sta?s?cs […]

[3] = test system: control and ERCC6L2^−/− U2OS cells; assay: Clonogenic survival assay; conditions: 11 days, 3 independent experiments, ERCC6L2^−/− vs control U2OS
Description: Cells were seeded in 6-well plates (approximately 700 cells/well) and either left untreated or treated with the indicated concentrations of genotoxic agents. Cells were then grown for 11 days to allow colony formation. Colonies were stained with 5 mg/ml crystal violet (Sigma-Aldrich) solution in 25% methanol for 30 min. Pictures were taken using a Nikon D3200 camera and images were analyzed using FIJI software. FIJI’s ‘Analyze Particles’ function was used to quantify numbers of colonies. Survival was calculated relative to untreated cells. Each experiment was performed in technical triplicates, and data shown represent combined data from at least three independent experiments.

| Compound | nascent DNA protection, control vs ERCC6L2^−/− [1] | pRPA levels in treated ERCC6L2^−/− cells (pRPA32) | micronuclei formation in ERCC6L2-deficient cells [2] | CENP-B intensities after 25 µg/ml phleomycin (CENP-B) | pKAP1 levels in treated ERCC6L2^−/− cells (pKAP1 (KAP1 S824)) | sensitivity of ERCC6L2-deficient cells [3] |
| --- | --- | --- | --- | --- | --- | --- |
| NC(=O)NO [hydroxyurea] | did not observe significant differences in nascent DNA protection |  |  |  |  |  |
| phleomycin |  | increased levels of pRPA | increased frequency of micronuclei formation | not aﬀected by DNA damage | decreased levels of pKAP1 | increased sensitivity |
